Test results from ChEMBL document CHEMBL3232962, “Identification and optimization of novel Hsp90 inhibitors with tetrahydropyrido[4,3-d]pyrimidines core through shape-based screening” (Eur J Med Chem, 2014).
pIC50: −log10 of the molar value.

Key:
[1] = molecular target: T1, Heat shock protein HSP 90-beta (Homo sapiens, UniProt P08238); assay: Inhibition of full-length HSP90 (unknown origin) expressed in Escherichia coli assessed as inhibition of ATPase activity after 3 hrs by spectrophotometric analysis
MCF7 = assay: cells; conditions: Homo sapiens, MCF7, 48 h
[2] = molecular target: T1, Heat shock protein HSP 90-beta; assay: Displacement of FITC-geldanamycin from HSP90 (unknown origin) after 30 mins by fluorescence polarization assay
HCT-116 = assay: cells; conditions: Homo sapiens, HCT-116, 48 h
[3] = Antiproliferative activity against human A231 cells after 48 hrs by MTT assay; format: functional, cell-based; conditions: A231, 48 h
cells = conditions: Homo sapiens, SK-BR-3, 48 h
Description: Antiproliferative activity against human SKBR3 cells after 48 hrs by MTT assay

T1 sequence (P08238 whole entry): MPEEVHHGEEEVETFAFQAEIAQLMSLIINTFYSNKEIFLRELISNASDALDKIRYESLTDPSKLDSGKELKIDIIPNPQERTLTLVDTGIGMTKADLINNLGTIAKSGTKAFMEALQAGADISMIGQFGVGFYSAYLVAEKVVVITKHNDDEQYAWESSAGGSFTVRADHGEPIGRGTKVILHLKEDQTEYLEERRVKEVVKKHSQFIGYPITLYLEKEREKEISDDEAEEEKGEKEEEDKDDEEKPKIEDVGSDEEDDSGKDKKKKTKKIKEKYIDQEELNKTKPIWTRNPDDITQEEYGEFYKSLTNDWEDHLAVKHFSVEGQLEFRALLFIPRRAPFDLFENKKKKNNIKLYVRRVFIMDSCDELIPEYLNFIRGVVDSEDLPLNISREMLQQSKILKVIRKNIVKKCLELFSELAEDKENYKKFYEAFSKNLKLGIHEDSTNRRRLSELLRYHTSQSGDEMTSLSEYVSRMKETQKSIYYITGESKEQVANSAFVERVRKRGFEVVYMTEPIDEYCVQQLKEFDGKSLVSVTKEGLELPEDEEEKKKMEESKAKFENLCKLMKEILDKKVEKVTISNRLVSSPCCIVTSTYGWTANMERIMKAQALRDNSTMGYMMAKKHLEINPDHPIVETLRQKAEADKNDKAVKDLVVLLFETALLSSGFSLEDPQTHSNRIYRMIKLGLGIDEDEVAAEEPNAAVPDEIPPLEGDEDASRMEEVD

Structure (SMILES)	pIC50 [1]	pIC50 (MCF7)	pIC50 [2]	pIC50 (HCT-116)	pIC50 [3]	pIC50 (cells)
CCCN1CCN(c2ncc3c(n2)CCN(Cc2cc(Br)cs2)C3)CC1	4.23					
COc1ccc(OC)c(C(=O)N2CCc3nc(N4CCN(c5ncccn5)CC4)ncc3C2)c1	4.78	4.36	4.39	4.46	4.29	4.63
Clc1ccc(CN2CCc3nc(N4CCN(c5ncccn5)CC4)ncc3C2)cc1	4.32		< 4.00			
COc1cc(CN2CCc3nc(N4CCOCC4)ncc3C2)cc(OC)c1OC	4.26					
CCN1CCN(c2ncc3c(n2)CCN(Cc2ccc(Br)s2)C3)CC1	4.13					
COc1ccc(C(=O)N2CCc3nc(N4CCN(c5ncccn5)CC4)ncc3C2)c(OC)c1	5.10	4.70	4.52	4.94	4.42	4.80
O=C(c1ccc(O)cc1O)N1CCc2nc(N3CCN(c4ncccn4)CC3)ncc2C1	5.49	4.76	4.99	4.64	4.67	4.91
Cc1ncc2c(n1)CCN(C(=O)c1cc(Cl)c(O)cc1O)C2	6.38	5.72	7.00	5.55	5.42	5.36
CN(C)c1ccc(CN2CCc3nc(N4CCN(c5ncccn5)CC4)ncc3C2)cc1	4.34		< 4.00			
c1cc2c(cc1CN1CCc3nc(Nc4ccc5c(c4)OCCO5)ncc3C1)OCCO2	< 4.00					
Nc1ncc2c(n1)CCN(C(=O)c1cc(Cl)c(O)cc1O)C2	6.29	5.36	6.51	5.92	5.28	5.64
O=C(c1cc(Cl)c(O)cc1O)N1CCc2nc(N3CCN(c4ncccn4)CC3)ncc2C1	6.03	4.99	5.78	5.56	5.18	5.29
COc1ccc(OC)c(CN2CCc3nc(N4CCN(c5ncccn5)CC4)ncc3C2)c1	4.45	4.27	4.34	4.36	4.56	4.97
CC1CCN(c2ncc3c(n2)CCN(Cc2ccc(Br)s2)C3)CC1	4.06					
CC(C)c1cc(C(=O)N2Cc3ccc(CN4CCN(C)CC4)cc3C2)c(O)cc1O [ONALESPIB]	6.46	6.55	7.52	7.10	6.00	6.85
CN1CCN(c2ncc3c(n2)CCN(Cc2ccc(Br)s2)C3)CC1	4.20					
O=C(c1ccc(F)cc1)N1CCc2nc(N3CCN(c4ncccn4)CC3)ncc2C1	4.57	4.34	< 4.00	4.17	4.26	4.61
CO[C@H]1/C=C\C=C(/C)C(=O)NC2=CC(=O)C(NCCN(C)C)=C(C[C@@H](C)C[C@H](OC)[C@H](O)[C@@H](C)/C=C(\C)[C@@H]1OC(N)=O)C2=O [ALVESPIMYCIN]		6.10		5.92	6.77	5.51
COc1cc(OC)c(OC)cc1CN1CCc2nc(N3CCOCC3)ncc2C1	4.29					
O=C(c1ccc(Cl)cc1)N1CCc2nc(N3CCN(c4ncccn4)CC3)ncc2C1	4.61	4.38	< 4.00	4.66	4.61	4.95
Fc1ccc(CN2CCc3nc(N4CCN(c5ncccn5)CC4)ncc3C2)cc1	4.40		< 4.00			
